In assay [1] the test system is axon shaft mitochondria of DRG neurons. Description: FRAP of Mito-GFP in proximal axon shaft segments of DRG neurons. It counts as cell-based, rat. From the text: To determine if the effect of growth inhibitors on mitochondrial recovery was limited to distal axons, we performed FRAP on more proximal segments of the axon shaft in DRG neurons expressing Mito-GFP. For analyses of recovery, the bleached ROIs were divided into four subregions along the axon length so that we could distinguish anterograde from retrograde transport-driven Mito-GFP recovery. […] Since this effect of MAG-Fc on recovery could derive from either axons or cell body, we cultured dissociated DRGs in microfluiclic devices where we could limit exposure to MAG-Fc and TubA to the axons.
Mito-KR- and Mito-GFP-expressing DRG neurons were used for FRAP analyses at 48-72 h after transfection. To evaluate mitochondrial motility in Mito-KR-expressing neurons, Mito-KR signals were photobleached using continual exposure to an argon laser set at 594 nm for 30 s (100% laser power) The bleached ROI was then monitored for recovery using an argon laser set at 580 nm every 10 s over 16 min (13% laser power). […]
Vesicle trafficking was quantified using differential ImageJ Difference Tracker Plug-in (Andrews et al., 2010). 50-80-μm long unbranched axon segments at approximately the mid-region between growth cone and cell body were analyzed. […] The distance between the growth tip at end of the post-CALI sequence and the pre-CALI baseline was measured using LAS-X software. […]

In assay [2] the test system is growth cones of DRG neurons. The assay can be described thus: Immunolabeling of growth cone cytoskeleton (Ac-α-tubulin, tyrosinated α-tubulin, F-actin). Type of assay: cell-based, rat. On the procedure:
We tested for this specificity in the adult DRG neurons from above by immunoblotting. […] (A) Number of mitochondria in growth cones after exposing DRG cultures to 10 μM TubA versus vehicle (control) for 1 h is shown as average fold-change in number of mitochondria per growth cone±SEM (n=13 axons across three culture preparations; *, P≤0.05 by one-way ANOVA with Bonferroni post hoc analysis). (B) Representative EMs of Remak bundles (arrowheads) in naive Sciatic nerve and nerves after 2 h vehicle (DMSO) or TubA injection are shown. Arrows indicate mitochondria in the unmyelinated axons. Note that a Schwann cell nucleus (asterisk) is seen in the Remak bundle for DMSO image but not the other two micrographs (scale bar=3 μm). (C) Quantification of number of mitochondria per unmyelinated axon from EM images as in B is shown as average±SEM (n≥5; *****, P≤0.0001 by one-way ANOVA with Bonferroni post hoc analysis). (D-F) Quantification for indicated parameters for mitochondrial transport in sciatic nerve in vivo using tetramethylrhodamine, ethyl ester, perchlorate to visualize mitochondria is shown.
We used a sequential immunostaining approach for simultaneous detection of tyrosinated α-tubulin (by indirect immunofluorescence), Ac-α-tubulin, and β-tubulin (by direct immunofluorescence). Phalloidin staining was also used to detect F-actin. Monoclonal mouse anti-Ac-α-tubulin IgG (6-11-B1; Sigma-Aldrich; T6793) was conjugated to Alexa Fluor 405 using the Zenon Labeling Kit per the manufacturer's instructions (Life Technologies; Z-25013). After fixation and permeabilization, coverslips were incubated with anti-Tyr-α-tubulin IgG (1:100; Sigma-Aldrich; T9028) in 1% blocking buffer overnight at 4° C. in a humidified chamber. […] Coverslips were washed twice with PBS then stained with Actin-Red 555 Ready Probe for 30 min (1:25 dilution of 200 /Uml stock; Thermo Fisher Scientific; R37112). […] Epifluorescence and confocal imaging was used for imaging of fixed samples to obtain protein localization and quantitation data. […]

Results on one compound are retold here after patent US20210330756A1, “Acetylation of Miro1” (University of South Carolina, priority 2020, published 2021).

Molecules are shown by their SMILES.

`CN1CCc2c(c3ccccc3n2Cc2ccc(C(=O)NO)cc2)C1` [TubA, tubastatin]: the “effect on MAG-Fc's attenuation of axonal Mito-GFP recovery (axon shaft)” value in assay [1] (HDAC6 inhibition with TubA) was “prevented by HDAC6 inhibition”. The “Mito-GFP recovery pattern along axon shaft” value in assay [1] (TubA-treated cultures) is listed as “more rapid recovery in proximal segments”. In assay [2] (10 μM vs control cultures), the “anti-Ac-α-tubulin immunoreactivity in growth cones” value was “significant increase in anti-Ac-α-tubulin immunoreactivity in growth cones” and the “tyrosinated α-tubulin in growth cones” value is “no change in tyrosinated α-tubulin”. Further, the “growth cone signals for F-actin” value in assay [2] (TubA-treated cultures) was “consistently decreased”.
